Experimental data: patent US20040171073A1, “Compounds for modulation of cholesterol transport” (Massachusetts Institute of Technology, priority 2002, published 2004)

Molecular target: T1, murine SR-BI (Mus musculus, UniProt Q61009)
T1 construct: expressed in transfected cells; host or cells: ldlA-7 (LDL receptor deficient Chinese hamster ovary cells)
T1 sequence (Q61009 1-509): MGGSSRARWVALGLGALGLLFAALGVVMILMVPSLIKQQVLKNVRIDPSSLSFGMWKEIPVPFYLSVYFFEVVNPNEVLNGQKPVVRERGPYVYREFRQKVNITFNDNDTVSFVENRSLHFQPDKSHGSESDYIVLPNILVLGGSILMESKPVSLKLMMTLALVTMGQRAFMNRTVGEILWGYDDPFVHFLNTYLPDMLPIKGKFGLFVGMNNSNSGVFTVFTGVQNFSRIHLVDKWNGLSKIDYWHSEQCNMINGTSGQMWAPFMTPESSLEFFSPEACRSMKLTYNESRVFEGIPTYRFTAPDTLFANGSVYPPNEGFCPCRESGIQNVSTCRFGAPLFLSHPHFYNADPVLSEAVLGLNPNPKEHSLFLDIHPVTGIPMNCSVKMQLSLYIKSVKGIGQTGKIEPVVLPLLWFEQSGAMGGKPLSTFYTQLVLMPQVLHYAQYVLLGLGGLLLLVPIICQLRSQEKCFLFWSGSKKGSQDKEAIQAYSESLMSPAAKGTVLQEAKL
Experiment: Uptake of DiI from DiI-HDL by ldlA[mSR-BI] cells (high throughput screen and concentration dependence)
Assay type: cell-based

[1] = DiI uptake from DiI-HDL, compounds at nominal 10 micromolar, ldlA[mSR-BI] cells

SMILES	ENDOHDL Test 1	ENDOHDL Test 2	ENDOHDL Test 1 [1]	ENDOHDL Test 2 [1]
c1ccc(-c2cc3c(ccc4nonc43)[nH]2)cc1 [MIT 9952-262]	0.53	0.45		
Cc1ccc(N2SC(NS(=O)(=O)c3ccc(C)cc3)N=C2c2ccccc2)cc1 (centres unmarked) [MIT 9952-207]	1.28	1.19		
CCn1c2ccccc2c2cc(/C=N/NC(N)=S)ccc21 [MIT 9952-330]			0.59	0.56
Cc1cc(C)c(/C=N/N=C/c2c(C)cc(C)cc2C)c(C)c1 [MIT 9952-69]	1.18	1.32		
CN(C)CC(=O)Nc1ccc2c(c1)Nc1ccccc1CC2.Cl [MIT 9952-152]	0.51	0.43		
CCOc1ccc2nc3cc(/N=N/c4ccc(N)nc4N)ccc3c(N)c2c1 [MIT 9952-320]			0.54	0.83
O=C(NC(NC(=S)Nc1ccc2ccccc2c1)C(Cl)(Cl)Cl)c1cccc([N+](=O)[O-])c1 (centres unmarked) [MIT 9952-216]	0.54	0.58		
Cc1cccc(/C=N/Nc2nc(C)nc(C)n2)c1 [MIT 9952-270]	0.66	0.66		
O=C(C[n+]1ccc(CCSC2Cc3cccc4cccc2c34)cc1)c1ccc([N+](=O)[O-])cc1 (centres unmarked) [MIT 9952-75]	0.64	0.71		
NSCc1nc(-c2ccc(Cl)cc2)no1 [MIT 9952-64]	0.58	0.58		
O=C(/C=C/c1ccccc1)NC(NC(=S)Nc1cccc([N+](=O)[O-])c1)C(Cl)(Cl)Cl (centres unmarked) [MIT 9952-100]	0.5	0.51		
CN(CC#CC(O)(c1ccccc1)c1ccccc1)C1CCCCC1 [MIT 9952-72]	1.07	1.12		
O=C(Nc1cccc(Cl)c1)N1CCN(c2ccc([N+](=O)[O-])cc2)CC1 [MIT 9952-256]	0.65	0.92		
[O-][n+]1onc2c3cc(-c4ccccc4)[nH]c3ccc21 [MIT 9952-59]	0.35	0.44		
FC(F)(F)c1cccc(N2N=C(/C=C/c3ccccc3)CC2c2ccccc2)c1 (centres unmarked) [MIT 9952-147]	0.63	0.53		
C/C(=N\NC(=O)c1ccccc1)c1ccccc1C(=O)O [MIT 9952-242]	1.26	1.26		
CN1CCc2c(c3ccccc3n2-c2ccccc2)C1.Cl [MIT 9952-197]	0.58	0.71		
C/C(=N\NC(=O)c1ccc(-c2ccccc2)cc1)c1cccc(N)c1 [MIT 9952-164]	0.6	0.61		
Cc1ccc(NC(=S)NC(NC(=O)c2ccccc2Cl)C(Cl)(Cl)Cl)cc1 (centres unmarked) [MIT 9952-332]			0.69	0.67
C=CCN1C(=O)[C@H]2Cc3c([nH]c4ccccc34)[C@@H](c3ccc4c(c3)OCO4)N2C1=S [MIT 9952-179]	0.54	0.54		
CCn1c(COC)c(-c2ccccc2)c2cc([N+](=O)[O-])ccc21 [MIT 9952-143]	0.66	0.65		

SMILES	ENDOHDL Test 1	ENDOHDL Test 2	ENDOHDL Test 1 [1]	ENDOHDL Test 2 [1]
NC(=O)N/N=C/c1ccc(-c2ccc([N+](=O)[O-])cc2)o1 [MIT 9952-326]			0.55	0.53
CCOC(=O)c1c(C)n(-c2ccc(C)cc2)c2ccc(O)cc12 [MIT 9952-73]	0.61	0.59		
CC1(C)CC(=O)C(=Cc2c(Cl)ccc3ccccc23)C(=O)C1 [MIT 9952-157]	1.26	1.21		
C/C(=C\C(=O)NCCc1c[nH]c2ccccc12)C(=O)O [MIT 9952-76]	1.25	1.26		
O=C1C(=O)c2ccc(Oc3ccc([N+](=O)[O-])cc3)c3cccc1c23 [MIT 9952-95]	0.79	0.73		
Cc1cc(C)c(CO)c(C)c1/C=N/Nc1ccc([N+](=O)[O-])cc1 [MIT 9952-283]			0.53	0.48
O=C(/C=C/C=C(Cl)Cl)c1ccc2c(c1)OCO2 [MIT 9952-298]			1.29	1.24
CCN(CC(O)COc1ccccc1C(C)=O)S(=O)(=O)O.[Na+] (centres unmarked) [MIT 9952-62]	1.28	1.24		
O=[N+]([O-])c1ccc(N/N=C(/CS(=O)(=O)c2ccccc2)c2ccccc2)c([N+](=O)[O-])c1 [MIT 9952-200]	0.73	0.8		
O=C(N/N=C/c1ccc(O)cc1)C1CC1(c1ccccc1)c1ccccc1 (centres unmarked) [MIT 9952-87]	0.67	0.67		
CO/C(=N\C(NC(=S)Nc1ccccc1)C(Cl)(Cl)Cl)c1ccc(C)cc1 (centres unmarked) [MIT 9952-203]	0.73	0.7		
O=C(Nc1ccc2c(c1)OCO2)c1ccc2ccccc2c1 [MIT 9952-280]			0.75	0.67
COc1cccc(C(=O)N/N=C/c2ccc(Cl)cc2Cl)c1 [MIT 9952-285]			0.57	0.53
CCOC(=O)c1c(NC(=O)c2ccc(N)c([N+](=O)[O-])c2)sc2c1CCCC2 [MIT 9952-121]	0.54	0.57		
CC1=C(C(=O)OCc2ccccc2)C(c2ccc(N(C)C)cc2)NC(=O)N1 (centres unmarked) [MIT 9952-163]	0.6	0.69		
C/C(CCS(=O)(=O)c1ccc(C)cc1)=N\NC(N)=S [MIT 9952-333]			0.56	0.59
COc1ccc(C(=O)Nc2ccc(C(C)C)cc2)cc1OC [MIT 9952-277]	0.66	0.65		
CC(CC(=O)NCCc1c[nH]c2ccccc12)C(=O)Cl (centres unmarked) [MIT 9952-12]	1.25	1.26		
Clc1ccc(/N=C/c2ccc3c(c2)OCO3)nc1 [MIT 9952-176]	1.36	1.17		
O=C(Cl)c1ccccc1NS(=O)(=O)/C=C/c1ccccc1 [MIT 9952-110]	1.17	1.33		
Brc1ccc2c(c1)OCCSCCOCCOCCSCCO2 [MIT 9952-244]	0.56	0.54		

SMILES	ENDOHDL Test 1	ENDOHDL Test 2	ENDOHDL Test 1 [1]	ENDOHDL Test 2 [1]
CCOC(=O)c1c(NC(=O)c2ccccc2C)sc2c1CCCC2 [MIT 9952-223]	0.64	0.57		
O=C(COc1ccc(Cl)cc1)N/N=C/c1ccc(Cl)cc1 [MIT 9952-31]	1.33	1.17		
NS(=O)(=O)c1ccc(N=N/C(=N/Nc2ccc(S(N)(=O)=O)cc2)c2ccccc2)cc1 [MIT 9952-204]	0.55	0.62		
O=C(/C=C/c1cccc([N+](=O)[O-])c1)Nc1cccc(Cl)c1 [MIT 9952-291]			0.55	0.51
Nc1cc2cccnc2c2ncccc12 [MIT 9952-230]	0.61	0.51		
CC(C)(C)c1ccc(C(=O)Nc2cccc(NC(=O)c3cccc([N+](=O)[O-])c3)c2)cc1 [MIT 9952-331]			0.63	0.35
C/C(=N\NC(N)=S)c1ccc[nH]1 [MIT 9952-309]			0.7	0.68
CCOC(=O)C1=C(C)NC(=S)N(C=O)C1c1ccccc1 (centres unmarked) [MIT 9952-297]			0.56	0.46
Brc1ccc(-c2cc(-c3ccccc3)nc(N3CCOCC3)n2)cc1 [MIT 9952-261]	0.62	0.66		
O=C(/C=C/c1ccccc1)NC(NC(=S)Nc1cccc([N+](=O)[O-])c1)C(Cl)(Cl)Cl (centres unmarked) [MIT 9952-7]	0.5	0.51		
CC(C)(C)c1ccc(C(=O)Nc2ccccc2C(=O)Cl)cc1 [MIT 9952-47]	1.18	1.37		
O=C(Cl)CCNC(=O)c1ccccc1 [MIT 9952-18]	1.21	1.22		
O=C1CC(N2CCOCC2)C(=O)N1c1ccc(Br)cc1 (centres unmarked) [MIT 9952-17]	1.32	1.17		
O=C1CC(S/C(=N\c2ccccc2)Nc2ccccc2)C(=O)N1c1cccc2ccccc12 (centres unmarked) [MIT 9952-171]	0.58	0.54		
O=C(Nc1ccc(Oc2ccc(Cl)c3cccnc23)c(Cl)c1)c1ccc([N+](=O)[O-])cc1 [MIT 9952-172]	0.55	0.56		
C/C(CS(=O)(=O)c1ccccc1)=N/NC(N)=S [MIT 9952-271]	0.59	0.54		
Nc1ccc(C(=O)Nc2ccc(-c3nc4ccc(NC(=O)c5ccc(N)cc5)c(Cl)c4[nH]3)cc2Cl)cc1 [MIT 9952-334]			0.57	0.55
Cc1cccc(C(=O)Nc2cccc(-c3nc4c(C)cccc4o3)c2)c1 [MIT 9952-236]	0.57	0.38		
O=C(O)C(Cc1ccccc1)N1C(=O)CSC1=S (centres unmarked) [MIT 9952-202]	1.23	1.11		
